Measurements taken from patent US4473578A, “β-Lactam antibiotics and their use” (Beecham Group Limited, priority 1979, dated 1984).

How the values were obtained:
Assay in all cases: Antibacterial effectiveness in agar
Assay type in all cases: cell-based
Escherichia coli Ba78R+ = conditions: Escherichia coli
Source text: (§1) b. Antibacterial effectiveness of the compound of […]

Proteus morganii T361 = conditions: Morganella morganii, T361
Source text: as §1

[1] = test system: Staphylococcus aureus Smith; conditions: Staphylococcus aureus
Source text: as §1

Serratia marcescens SM27 = conditions: Serratia marcescens, SM27
Source text: as §1

Citrobacter freundii W18 = conditions: Citrobacter freundii, W18
Source text: as §1

Bacteroides fragilis WS1 = conditions: Bacteroides fragilis, WS1
Source text: as §1

Escherichia coli E8 = conditions: Escherichia coli, E8
Source text: as §1

[2] = test system: Pseudomonas aeruginosa W975; conditions: Pseudomonas aeruginosa, W975
Source text: as §1

Bacteroides fragilis BC4 = conditions: Bacteroides fragilis, BC4
Source text: as §1

[3] = test system: Klebsiella aerogenes T219; conditions: Klebsiella aerogenes, T219
Source text: as §1

[4] = test system: Enterbacter aerogenes NCTC 10006
Source text: as §1

Escherichia coli JT414C+ = conditions: Escherichia coli
Source text: as §1

[5] = test system: Pseudomonas aeruginosa Dalgleish; conditions: Pseudomonas aeruginosa
Source text: as §1

Bacteroides fragilis B3 = conditions: Bacteroides fragilis, B3
Source text: as §1

[6] = test system: Bacteroides fragilis WS41; conditions: Bacteroides fragilis, WS41
Source text: as §1

Escherichia coli JT1 = conditions: Escherichia coli, JT1
Source text: as §1

Proteus morganii I = conditions: Morganella morganii
Source text: as §1

Proteus mirabilis T318 = conditions: Proteus mirabilis, T318
Source text: as §1

[7] = test system: Escherichia coli NCTC 15418; conditions: Escherichia coli, NCTC15418
Source text: as §1

[8] = test system: Klebsiella aerogenes R112; conditions: Klebsiella aerogenes, R112
Source text: as §1

Proteus vulgaris X = conditions: Proteus vulgaris
Source text: as §1

Proteus mirabilis 889 = conditions: Proteus mirabilis, 889
Source text: as §1

Proteus rettgeri R110 = conditions: Providencia rettgeri, R110
Source text: as §1

[9] = test system: Klebsiella aerogenes I281; conditions: Klebsiella aerogenes, I281
Source text: as §1

[10] = test system: Enterbacter aerogenes T660
Source text: as §1

[11] = test system: Staphylococcus aureus T67+; conditions: Staphylococcus aureus
Source text: as §1

Proteus rettgeri I = conditions: Providencia rettgeri
Source text: as §1

[12] = test system: Pseudomonas aeruginosa NCTC 10662; conditions: Pseudomonas aeruginosa, NCTC10662
Source text: as §1

[13] = test system: Enterobacter cloacea NCTC 10005; conditions: Enterobacter, NCTC10005
Source text: as §1

[14] = test system: Bacteroides fragilis WS12; conditions: Bacteroides fragilis, WS12
Source text: as §1

[15] = test system: Streptococcus faecalis C90; conditions: Enterococcus faecalis, C90
Source text: as §1

[16] = test system: Staphylococcus aureus T150+; conditions: Staphylococcus aureus
Source text: as §1

[17] = test system: Serratia marcescens Wo146; conditions: Serratia marcescens, WO146
Source text: as §1

Escherichia coli JT4R+ = test system: Escherichia coli JT4R+
Source text: as §1

Escherichia coli 5 = conditions: Escherichia coli, 5
Source text: as §1

[18] = test system: Bacteroides fragilis BC16; conditions: Bacteroides fragilis, BC16
Source text: as §1

Escherichia coli E96R+ = test system: Escherichia coli E96R+
Source text: as §1

[19] = test system: Citrobacter freundii T221; conditions: Citrobacter freundii, T221
Source text: as §1

[20] = test system: Streptococcus faecalis T1101; conditions: Enterococcus faecalis, T1101
Source text: as §1

[21] = test system: Staphylococcus aureus ATCC 25923; conditions: Staphylococcus aureus, ATCC25923
Source text: as §1

[22] = test system: Klebsiella aerogenes Va2R+; conditions: Klebsiella aerogenes
Source text: as §1

Escherichia coli JT425C+ = conditions: Escherichia coli
Source text: as §1

[23] = test system: Bacteroides fragilis 2118; conditions: Bacteroides fragilis, 2118
Source text: as §1

[24] = test system: Bacteroides fragilis VP1 8249; conditions: Bacteroides fragilis, VP18249
Source text: as §1

Escherichia coli JT20R+ = test system: Escherichia coli JT20R+
Source text: as §1

[25] = test system: Enterobacter cloacea T749; conditions: Enterobacter, T749
Source text: as §1

[26] = test system: Proteus vulgaris NCTC 4395; conditions: Proteus vulgaris, NCTC4395
Source text: as §1

[27] = test system: Staphylococcus aureus ME9+; conditions: Staphylococcus aureus
Source text: as §1

CCSC1=C(C(=O)[O-])N2C(=O)[C@@H]([C@H](C)OS(=O)(=O)[O-])[C@H]2C1.[Na+].[Na+] [Example 14, Disodium (5R,6R)-3-ethylthio-6-[(S)-1-sulphonato-oxyethyl]-7-oxo-1-azabicyclo[3.2.0]hept-2-ene-2-carboxylate]
MIC (Escherichia coli Ba78R+): 0.2 µg/mL | MIC (Proteus morganii T361): 0.4 µg/mL | MIC [1]: 0.4 µg/mL | MIC (Serratia marcescens SM27): 0.4 µg/mL | MIC (Citrobacter freundii W18): 1.6 µg/mL | MIC (Bacteroides fragilis WS1): 6.2 µg/mL | MIC (Escherichia coli E8): ≤ 0.1 µg/mL | MIC [2]: 100 µg/mL | MIC (Bacteroides fragilis BC4): 0.8 µg/mL | MIC [3]: ≤ 0.1 µg/mL | MIC [4]: 0.4 µg/mL | MIC (Escherichia coli JT414C+): 0.2 µg/mL | MIC [5]: 50 µg/mL | MIC (Bacteroides fragilis B3): 0.4 µg/mL | MIC [6]: 0.2 µg/mL | MIC (Escherichia coli JT1): ≤ 0.1 µg/mL | MIC (Proteus morganii I): 0.4 µg/mL | MIC (Proteus mirabilis T318): 0.4 µg/mL | MIC [7]: ≤ 0.1 µg/mL | MIC [8]: ≤ 0.1 µg/mL | MIC (Proteus vulgaris X): 0.4 µg/mL | MIC (Proteus mirabilis 889): 0.8 µg/mL | MIC (Proteus rettgeri R110): 0.2 µg/mL | MIC [9]: ≤ 0.1 µg/mL | MIC [10]: 0.2 µg/mL | MIC [11]: 0.8 µg/mL | MIC (Proteus rettgeri I): 0.4 µg/mL | MIC [12]: 50 µg/mL | MIC [13]: 6.2 µg/mL | MIC [14]: 0.2 µg/mL | MIC [15]: 12.5 µg/mL | MIC [16]: 0.4 µg/mL | MIC [17]: 1.6 µg/mL | MIC (Escherichia coli JT4R+): 0.4 µg/mL | MIC (Escherichia coli 5): ≤ 0.1 µg/mL | MIC [18]: 1.6 µg/mL | MIC (Escherichia coli E96R+): ≤ 0.1 µg/mL | MIC [19]: 1.6 µg/mL | MIC [20]: 12.5 µg/mL | MIC [21]: 0.4 µg/mL | MIC [22]: 0.8 µg/mL | MIC (Escherichia coli JT425C+): ≤ 0.1 µg/mL | MIC [23]: 0.2 µg/mL | MIC [24]: 0.4 µg/mL | MIC (Escherichia coli JT20R+): 0.8 µg/mL | MIC [25]: 6.2 µg/mL | MIC [26]: 0.2 µg/mL | MIC [27]: 1.6 µg/mL
